Here are results for four compounds from US12435032B2, “L-γ-methyleneglutamine compounds and methods of use” (University of Mississippi, priority 2019, dated 2025).

In one series the test system is newborn rat spinal cord. The settings on record: cited from earlier work.
The subject of series [1] is central nervous system (CNS). The note with it: cited from earlier work.
The test system of series [2] is MCF-7 breast cancer cells. Description: Cytotoxicity (cell death, propidium iodide) in MCF-7 cells. The format is cell-based. The settings on record: Homo sapiens, MCF7, dose-response 0.32-320 μM, read-out: Cytotoxicity EC50.
The subject of series [3] is SK-BR-3 breast cancer cells. Description: Cytotoxicity (cell death, propidium iodide) in SK-BR-3 cells. In kind it is cell-based. The settings on record: for EC50: Homo sapiens, dose-response 0.32-320 μM; for cytotoxicity EC50: SK-BR-3, 72 h / after the first 24 h.
For series [4], the system named is triple-negative MDA-MB-231 breast cancer cells. Description: Growth inhibition of MDA-MB-231 cells. The format is cell-based. The note with it: for IC50: Homo sapiens; for IC50 / Growth Inhibition IC50: dose-response 0.32-320 μM. As for the experimental part:
(§1) Olaparib was chosen because it is one of a few FDA-approved chemotherapeutics for triple-negative breast cancer.
(§2) Cells were incubated for 15 minutes at 37° C.

For series [5], the system named is MCF-10A non-cancerous breast cells. As to the kind of experiment: Growth inhibition of MCF-10A cells (negative control line). The format is cell-based. The settings on record: Homo sapiens, dose-response 0.32-320 μM. The method, then:
as §1, §2

The subject of series [6] is MCF-7 (ER+/PR+/HER2−) breast cancer cells. Description: Growth inhibition of MCF-7 cells (Hoechst 33342 fluorescence vs non-treated wells). The format is cell-based. The note with it: Homo sapiens, dose-response 0.32-320 μM. As for the experimental part:
as §1, §2

For series [7], the system named is triple-negative MDA-MB-231 breast cancer cells. Description: cells. The note with it: Homo sapiens, read-out: Cytotoxicity EC50.
The test system of series [8] is SK-BR-3 (ER−/PR−/HER2+) breast cancer cells. As to the kind of experiment: Growth inhibition of SK-BR-3 cells. The settings on record: Homo sapiens, dose-response 0.32-320 μM. In kind it is cell-based. The method, then: as §1, §2
Series [9] relates to MCF-10A non-cancerous breast cells. Description: Cytotoxicity (cell death, propidium iodide) in MCF-10A cells. In kind it is cell-based. As for the experimental part: (§3) To assess the selectivity of cytotoxicity for cancer cells, all drugs and compounds were screened against MCF-10A, non-cancerous breast cells.
as §2

Test in series [10]: as above
In kind it is cell-based. The note with it: human, MCF-10A non-cancerous breast cells. The method, then: as §3, §2

Series [11] relates to triple-negative MDA-MB-231 breast cancer cells.
Where [12] appears, read: MCF7, 24 h, MCF-7, 24 h exposure.
Setting [13] is: MCF7, 72 h, MCF-7, 72 h exposure.

Like-named read-outs stand apart in the source and are kept apart here.

For the compound `C=C(C[C@H](N)C(=O)O)C(=O)O` [Compound 2, L-γ-methyleneglutamic acid], the “potency relative to L-glutamate as a depolarizing agent” value with newborn rat spinal cord is reported as 10 times. Besides, in [1], the “central nervous system (CNS) inhibitory activity” value is “strong”.

Regarding `C=C(C[C@H](N)C(=O)O)C(=O)NCc1ccccc1` [Compound 4, (S)-2-amino-4-(benzylcarbamoyl) pent-4-enoic acid], the EC50 was 664 µM in series [2] (MCF-7, 24 h exposure); 218 µM in [2] (MCF-7, 72 h exposure); 0.1 µM in [3] (SK-BR-3, 24 h exposure); > 1000 µM in series [3] (SK-BR-3, 72 h exposure); 374 µM in [7] (MDA-MB-231, 24 h); 980 µM in series [7] (MDA-MB-231, 72 h). Further, the “cytotoxicity EC50” value in series [3] was “much reduced toxicity”; in series [9] (after the first 24 h) it was “EC50 in the micromolar range”. Moreover, the IC50 is 481 µM in [4] (MDA-MB-231, 24 h exposure); 649 µM in series [4] (MDA-MB-231, 72 h exposure); > 1000 µM in series [5] (24 h exposure); > 1000 µM in [5] (72 h exposure); > 1000 µM in series [6] (setting [12]); 197 µM in series [6] (setting [13]). Moreover, the IC50 in series [8] (SK-BR-3, 24 h exposure) turned out to be 74.2 µM; in [8] (SK-BR-3, 72 h exposure), 0.6 µM. The “Growth Inhibition IC50” value in [4] (MDA-MB-231, 72 h exposure) is “poorer potency than olaparib”. The EC50 at 24 h in series [10] (24 h exposure) is > 1000 µM; in series [10] (head prints 24 h), 563 µM.

For the compound `C=C(C[C@H](N)C(=O)O)C(=O)NCc1ccc(F)cc1` [Compound 5, (S)-2-amino-4-((4-fluorobenzyl)carbamoyl)pent-4-enoic acid], the EC50 in series [2] (MCF-7, 24 h exposure) was > 1000 µM; in series [2] (MCF-7, 72 h exposure) it was 54.5 µM; in series [3] (SK-BR-3, 24 h exposure), > 1000 µM; in series [3] (SK-BR-3, 72 h exposure), 0.4 µM; in series [7] (MDA-MB-231, 24 h) it was 265 µM; in series [7] (MDA-MB-231, 72 h), 262 µM. The “cytotoxicity” value in series [3] (SK-BR-3, 24 h exposure) was “devoid of toxicity”. In addition, the “cytotoxicity EC50” value in series [3] was “cell death was apparent”; in series [9] (within the first 24 h) it was “EC50 below the millimolar range”. In addition, the IC50 is 350 µM in series [4] (MDA-MB-231, 24 h exposure); 339 µM in series [4] (MDA-MB-231, 72 h exposure); > 1000 µM in series [5] (24 h exposure); > 1000 µM in series [5] (72 h exposure); 590 µM in series [6] (setting [12]); 85.3 µM in [6] (setting [13]). In addition, the IC50 in [8] (SK-BR-3, 24 h exposure) came to 3.9 µM; in [8] (SK-BR-3, 72 h exposure), 4.5 µM. Besides, the “growth inhibition potency compared with olaparib” value in [4] (MDA-MB-231, throughout testing (24 h and 72 h)) is on record as “equipotent to olaparib”. In addition, the EC50 at 24 h is 796 µM in series [10] (24 h exposure) and > 1000 µM in [10] (head prints 24 h).

As for `C=C(C[C@H](N)C(=O)O)C(=O)Nc1ccccc1` [Compound 3, (S)-2-amino-4-(phenylcarbamoyl) pent-4-enoic acid], the EC50 in series [2] (MCF-7, 24 h exposure) is 421 µM; in series [2] (MCF-7, 72 h exposure), 2 µM; in series [3] (SK-BR-3, 24 h exposure), 0.2 µM; in series [3] (SK-BR-3, 72 h exposure), > 1000 µM; in series [7] (MDA-MB-231, 24 h), 541 µM; in series [7] (MDA-MB-231, 72 h) it was 409 µM. For the same compound, in series [3], the “cytotoxicity EC50” value is “much reduced toxicity”. In addition, the IC50 was 777 µM in [4] (MDA-MB-231, 24 h exposure); 814 µM in [4] (MDA-MB-231, 72 h exposure); > 1000 µM in [5] (24 h exposure); > 1000 µM in [5] (72 h exposure); > 1000 µM in series [6] (setting [12]); 250 µM in series [6] (setting [13]). Also, the IC50 worked out at 36.9 µM in series [8] (SK-BR-3, 24 h exposure) and 1.7 µM in series [8] (SK-BR-3, 72 h exposure). In addition, the “Growth Inhibition IC50” value in [4] (MDA-MB-231, 72 h exposure) is given as “poorer potency than olaparib”. In addition, the “cytotoxic EC50 compared with positive controls” value in [11] is given as “significantly greater than tamoxifen”. Moreover, the EC50 at 24 h in series [10] (24 h exposure) and in [10] (head prints 24 h) was > 1000 µM each time.
